Measured values from patent publication US20260248734A1, “COMPOSITIONS AND METHODS FOR TREATING METABOLIC DISEASES/DISORDERS” (priority 2023, published 2026).

Key:
[1] = system: differentiated human adipocytes; test: Thermogenic gene expression in human adipocytes in vitro by real-time PCR; assay type: cell-based
Method: RNA from iWAT tissue and cells was isolated and purified using a Qiagen Rneasy Mini Kit (Valencia, CA) according to manufacturer guidelines. mRNA concentrations were measured using a Take3 Micro-Volume Plate (BioTek, Winooski, VT), then normalized to 150 ng of mRNA for conversion to cDNA. cDNA was synthetized using random hexamer primers and an iScript cDNA-synthesis kit (Biorad). The quantitative RT-PCR reactions were performed using the So Advanced™ Universal SYBER Green Supermix kit (Biorad) in a CFX96 Touch Real-Time PCR Detection System (BioRad, Hercules, CA). Fold expression levels were calculated using the […]. Transcript levels were normalized to 18S ribosomal RNA levels in all experiments. Primer (Table 1) specificity was tested by assessing the melting curve.

[2] = system: adipose derived stem cells (ASCs) isolated from WT SubQ WAT; test: Beige differentiation of ASCs on ECM protein coated surfaces, beige marker expression by RT-PCR; assay type: cell-based, mice; settings: for reduction in UCP1 relative to uncoated surfaces: ASCs beige-differentiated on coated surface; for COX7A1 expression: differentiated cells on coated surface
Method: Immunohistochemistry. SubQ fat was harvested from animals using sterile techniques, cut into small pieces and fixed in 4% paraformaldehyde for 24 hours at 4 degrees. Tissue pieces were then washed with phosphate buffered saline (PBS), permeabilized with 0.5% triton in PBS and blocked with 10% donkey serum; followed by incubation with either 1) ITA7 antibody (1:100, Novus Biologics NBP1-86,118) and Griffonia simplicifolia isolectin conjugated with Rhodamine to labels endothelial cells, or 2) ITA7 antibody and CD68 antibody (1:100, Santa Cruz sc-70761) to label macrophages for 48 hours at 4 degrees. After washes (3×15 minutes), the tissues were incubated with second antibodies (Alexa Fluor 647 Donkey Anti-Rabbit IgG and/or TRITC Goat Anti-Mouse, IgG), BODIPY to stain lipid droplets and DAPI to stain the nuclei, for 2 hours at room temperature. Confocal imaging. A confocal laser-scanning microscope was used to image samples (Leica TCS SP8 Confocal Microscope; Buffalo Grove, IL). Adipocytes labeled by BODIPY and ITA7 labeled by Alexa Fluor 647 were imaged simultaneously in two channels, with Rhodamine-labeled endothelial tissue or TRITC CD68-labeled macrophages, and DAPI nuclei imaged in series. Confocal image stacks were obtained with a 63×oil immersion lens (NA 1.4). Laser intensity, confocal aperture, and photomultiplier gain were kept constant across samples. Image processing and analysis: Confocal image stacks were processed and analyzed using Leica LASX software version 3.5.2 (Wetzlar, Germany). The Alexa 647 and Rhodamine channels were thresholded and the intersection between both layers was quantified in order to characterize the colocalization between ITA7 and endothelial cells. In separate tissue, the colocalization between ITA7 and CD68 positive cells was also quantified. Using 3D images, the Alexa 647, Rhodamine or TRITC and intersection area per cell were calculated. cytoNet image analysis: cytoNet is a software accessible over the web that quantifies the spatial relationships in cell communities using principles of graph theory and evaluates the effect of cell-cell interactions on individual cell phenotypes (https://www.braininitiative.org/toolmakers/resources/cytonet/). Image files were segmented manually and provided as input to cytoNet. Because blood vessels have noncircular shapes, the minimum distance between object perimeters was computed in order to define graph edges. The resulting cell-to-cell perimeter distance and cells characteristics were analyzed in WT and KO SubQ WAT images. RNA isolation and quantitative RT-PCR. RNA from tissue and cells was isolated and purified using a Qiagen RNeasy Mini Kit (Valencia, CA) according to manufacturer guidelines. mRNA concentrations were measured using a Take3 Micro-Volume Plate (BioTek. Winooski, VT), then normalized to 150 ng of mRNA for conversion to cDNA. cDNA was synthetized using random hexamer primers and an iScript cDNA-synthesis kit (Biorad). The quantitative RT-PCR reactions were performed using the So Advanced™ Universal SYBER Green Supermix kit (Biorad) in a CFX96 Touch Real-Time PCR Detection System (BioRad, Hercules. CA). Fold expression levels were calculated using the 2^ΔΔCt method. Transcript levels were normalized to 18S ribosomal RNA levels in all experiments that used mice cells (FIGS. 3, 4, 7), or the GAPDH reference gene in experiments with human cells (FIG. 6). Primer (Table 1) specificity was tested by the assessing the melting curve. Western blot analysis. Cells were lysed using CelLytic (Sigma, St. Louis, MO) and tissue was lysed using RIPA buffer (EMD Millipore, Billerica, MA) and protease inhibitor cocktail (Fischer Scientific, Waltham, MA). Protein concentration was determined using the Bio-Rad DC protein assay (Bio-Rad Laboratories, Hercules. CA). […]

ASCs = test: Hydrogen peroxide (ROS-Glo H2O2) assay of ASCs differentiated on coated surfaces; assay type: cell-based, mice; settings: compared to uncoated surface

Molecule | peak of efficacy on browning after administration [1] | increase in Cox7A1 gene expression ([1]; 6 h of treatment) [fold] | increase in UCP1 gene expression ([1]; 6 h of treatment) | reduction in UCP1 relative to uncoated surfaces [2] [%] | PGC1A levels ([2]; compared to uncoated surfaces) | COX7A1 expression [2] | ROS levels (ASCs)
C=C[C@@]1(C)CC(=O)[C@]2(O)[C@@]3(C)[C@@H](O)CCC(C)(C)[C@@H]3[C@H](O)[C@H](OC(C)=O)[C@@]2(C)O1 [FSK, (13R)-1α,6β,9α-Trihydroxy-11-oxo-8α,13-epoxylabd-14-en-7β-yl acetate] | ~ 6 h | 1.5 | ~ 5 fold | – | – | – | –
CO1A1: Collagen 1A1 recombinant protein (R&D Systems) coated on culture plates | – | – | – | 71.7 | significant decrease | significant decrease | –
LAMA4: Laminin α4 recombinant protein (R&D Systems) coated on culture plates | – | – | – | 51.4 | – | significant decrease | higher ROS levels
CO3A1: Collagen 3A1 recombinant protein (R&D Systems) coated on culture plates (protein, UniProt P02461 154-1221, looked up) Collagen alpha-1(III) chain: QYDSYDVKSGVAVGGLAGYPGPAGPPGPPGPPGTSGHPGSPGSPGYQGPPGEPGQAGPSGPPGPPGAIGPSGPAGKDGESGRPGRPGERGLPGPPGIKGPAGIPGFPGMKGHRGFDGRNGEKGETGAPGLKGENGLPGENGAPGPMGPRGAPGERGRPGLPGAAGARGNDGARGSDGQPGPPGPPGTAGFPGSPGAKGEVGPAGSPGSNGAPGQRGEPGPQGHAGAQGPPGPPGINGSPGGKGEMGPAGIPGAPGLMGARGPPGPAGANGAPGLRGGAGEPGKNGAKGEPGPRGERGEAGIPGVPGAKGEDGKDGSPGEPGANGLPGAAGERGAPGFRGPAGPNGIPGEKGPAGERGAPGPAGPRGAAGEPGRDGVPGGPGMRGMPGSPGGPGSDGKPGPPGSQGESGRPGPPGPSGPRGQPGVMGFPGPKGNDGAPGKNGERGGPGGPGPQGPPGKNGETGPQGPPGPTGPGGDKGDTGPPGPQGLQGLPGTGGPPGENGKPGEPGPKGDAGAPGAPGGKGDAGAPGERGPPGLAGAPGLRGGAGPPGPEGGKGAAGPPGPPGAAGTPGLQGMPGERGGLGSPGPKGDKGEPGGPGADGVPGKDGPRGPTGPIGPPGPAGQPGDKGEGGAPGLPGIAGPRGSPGERGETGPPGPAGFPGAPGQNGEPGGKGERGAPGEKGEGGPPGVAGPPGGSGPAGPPGPQGVKGERGSPGGPGAAGFPGARGLPGPPGSNGNPGPPGPSGSPGKDGPPGPAGNTGAPGSPGVSGPKGDAGQPGEKGSPGAQGPPGAPGPLGIAGITGARGLAGPPGMPGPRGSPGPQGVKGESGKPGANGLSGERGPPGPQGLPGLAGTAGEPGRDGNPGSDGLPGRDGSPGGKGDRGENGSPGAPGAPGHPGPPGPVGPAGKSGDRGESGPAGPAGAPGPAGSRGAPGPQGPRGDKGETGERGAAGIKGHRGFPGNPGAPGSPGPAGQQGAIGSPGPAGPRGPVGPSGPPGKDGTSGHPGPIGPPGPRGNRGERGSEGSPGHPGQPGPPGPPGAPGPCCGGVGAAAIAGIGGEKAGGFAPYYG | – | – | – | 91.16 | – | significant decrease | –
